Data taken from patent US10226471B2, “Modified-release dosage forms of 5-HT2C agonists useful for weight management” (Arena Pharmaceuticals, Inc., priority 2010, dated 2019).

Columns and labels:
[1] = Safety in three randomized, double-blind, placebo-controlled trials (BLOOM, BLOSSOM, BLOOM-DM): discontinuation due to adverse reactions; type: in vivo, human
Method: (§1) The safety of Compound 1 has been evaluated in three randomized, double-blind, placebo-controlled trials, one of 2 years duration (“BLOOM” trial) and two of 1 year duration (“BLOSSOM” and “BLOOM-DM” trials). A total of 3451 patients were exposed to Compound 1 10 mg twice daily for up to 1 year; 571 patients were exposed for up to 2 years; and an additional 896 patients were exposed to Compound 1 10 mg once daily for up to 1 year. The BLOOM-DM study included only patients with type 2 diabetes mellitus; BLOOM and BLOSSOM excluded patients with diabetes.
The discontinuation rate due to adverse reaction was 7.1% for non-diabetic patients and 8.6% for patients with type 2 diabetes receiving Compound 1. The most common adverse reactions leading to discontinuation more often among Compound 1 treated patients than placebo were headache (1.3% vs. 0.8%), depression (0.9% vs. 0.5%) and dizziness (0.7% vs. 0.2%).

[2] = Adverse events in BLOOM and BLOSSOM (Table A); type: in vivo, human; conditions: 10 mg BID, N = 3195
Method: as §1
(§2) The most common adverse reactions for non-diabetic patients treated with Compound 1 compared to placebo were headache, upper respiratory tract infection, nasopharyngitis, dizziness, and nausea. The most common adverse reactions for diabetic patients were hypoglycemia, headache, back pain, nasopharyngitis, and nausea. Adverse events that were reported by ≥5% of patients and were more frequently reported by patients taking Compound 1 compared to placebo are summarized in Table A (BLOOM and BLOSSOM) and Table B (BLOOM DM).

[3] = Adverse events in BLOOM-DM, patients with type 2 diabetes (Table B); type: in vivo, human; conditions: 10 mg BID
Method: as §1, §2

[4] = Clinical trial of a single oral dose under fed and fasted conditions; type: in vivo, human; conditions: single oral dose 10 mg
Method: A clinical trial was performed to evaluate the safety and pharmacokinetic profile of a single oral dose of Compound 1 (10 mg) administered to healthy male and female subjects aged 18 to 60 years (inclusive) under fed and fasted conditions. […] Cmax was reduced by approximately 10% in the fed compared to fasted state, but a lack of food effect was not proven. […] Compound 1 was generally well tolerated when dosed in the fasted state and after a high-fat breakfast. There were a higher number of adverse events when dosed in the fasted state, (18 compared to 6) including two moderate intensity (nausea and headache) and one severe (vomiting) intensity events occurring in a single subject.

[5] = Pharmacokinetics parameters from an open-label, single-dose, cross-over clinical study (GastroPlus input); type: in vivo; conditions: human, oral, 10 mg, clinical study in the fed and fasted state
Method: The GastroPlus™ software (Simulations Plus, Inc., Lancaster, Calif.) was used to simulate the pharmacokinetics of Compound 1 from immediate-release and modified-release tablets. The release profile follows first order release kinetics and T80% is approximately 8 hours. The lower limit was not defined. Pharmacokinetics parameters of Compound 1 were obtained from an open-label, single-dose, cross-over clinical study in the fed and fasted state. Input variables and default values for GastroPlus™ simulation were as follows

[6] = not told
[7] = subcutaneous Alzet pump, 1 mg/kg/h for four days; mean
[8] = continuous subcutaneous infusion 0.630 mg/kg/h, Day 28, mean
Method: (§3) On Day 28, animals were placed in Culex® cages for automated blood collection. […] Analyte plasma concentrations were determined by LC/MS/MS. Noncompartmental PK analysis was performed using WinNonlin® (Pharsight®, Mountain View, Calif.) to determine t1/2, Cmaxss, Css and AUClast.

in vivo [9] = conditions: male, Sprague-Dawley, rat, plasma, po, 24 mg/kg/day
in vivo [10] = conditions: male, SD, rat, plasma
Method: as §3

clinical = conditions: human, brain (lumbar cerebrospinal fluid measured) and plasma, oral, 10 mg
[11] = Phase 3 clinical trials of lorcaserin for weight management
[12] = phase 3 trial, after 12 months, ITT-LOCF

With `C[C@H]1CNCCc2ccc(Cl)cc21` [Compound 1] the “depression leading to discontinuation” value ([1]; Compound 1 treated patients) was 0.9%, the “dizziness leading to discontinuation” value ([1]; Compound 1 treated patients) was 0.7% and the “headache leading to discontinuation” value ([1]; Compound 1 treated patients) was 1.3%. For the same molecule, the “discontinuation rate due to adverse reaction” value ([1]; non-diabetic patients) was 7.1%, the “discontinuation rate due to adverse reaction” value ([1]; patients with type 2 diabetes) was 8.6% and the “Back pain, number of patients” value [2] was 201. The “Back pain, patients (%)” value [2] was “(6.3) %”, the “Constipation, number of patients” value [2] was 186 and the “Constipation, patients (%)” value [2] was “(5.8) %”. For the same molecule, the “Diarrhea, number of patients” value [2] was 207, the “Diarrhea, patients (%)” value [2] was “(6.5) %” and the “Dizziness, number of patients” value [2] was 270. The “Dizziness, patients (%)” value [2] was “(8.5) %”, the “Dry mouth, number of patients” value [2] was 169 and the “Dry mouth, patients (%)” value [2] was “(5.3) %”. The “Fatigue, number of patients” value [2] was 229, the “Fatigue, patients (%)” value [2] was “(7.2) %” and the “Headache, number of patients” value [2] was 537. For the same molecule, the “Headache, patients (%)” value [2] was “(16.8) %”, the “Nasopharyngitis, number of patients” value [2] was 414 and the “Nasopharyngitis, patients (%)” value [2] was “(13.0) %”. The “Nausea, number of patients” value [2] was 264, the “Nausea, patients (%)” value [2] was “(8.3) %” and the “Upper respiratory tract infection, number of patients” value [2] was 439. The “Upper respiratory tract infection, patients (%)” value [2] was “(13.7) %”, the “Urinary tract infection, number of patients” value [2] was 207 and the “Urinary tract infection, patients (%)” value [2] was “(6.5) %”. The “Back pain, patients (%)” value [3] was “(11.7) %”, the “Cough, patients (%)” value [3] was “(8.2) %” and the “Dizziness, patients (%)” value [3] was “(7.0) %”. For the same molecule, the “Fatigue, patients (%)” value [3] was “(7.4) %”, the “Gastroenteritis viral, patients (%)” value [3] was “(7.0) %” and the “Headache, patients (%)” value [3] was “(14.5) %”. For the same molecule, the “Back pain, number of patients” value ([3]; N = 3195) was 30, the “Cough, number of patients” value ([3]; N = 3195) was 21 and the “Dizziness, number of patients” value ([3]; N = 3195) was 18. For the same molecule, the “Fatigue, number of patients” value ([3]; N = 3195) was 19, the “Gastroenteritis viral, number of patients” value ([3]; N = 3195) was 18 and the “Headache, number of patients” value ([3]; N = 3195) was 37. For the same molecule, the “Hypertension, number of patients” value ([3]; N = 3195) was 13, the “Hypertension, patients (%)” value ([3]; N = 3195) was “(5.1) %” and the “Hypoglycemia (including asymptomatic), number of patients” value ([3]; N = 3195) was 75. The “Hypoglycemia (including asymptomatic), patients (%)” value ([3]; N = 3195) was “(29.3) %”, the “Hypoglycemia, symptomatic, number of patients” value ([3]; N = 3195) was 19 and the “Hypoglycemia, symptomatic, patients (%)” value ([3]; N = 3195) was “(7.4) %”. The “Influenza, number of patients” value ([3]; N = 3195) was 15, the “Influenza, patients (%)” value ([3]; N = 3195) was “(5.9) %” and the “Nasopharyngitis, number of patients” value ([3]; N = 3195) was 29. For the same molecule, the “Nasopharyngitis, patients (%)” value ([3]; N = 3195) was “(11.3) %”, the “Nausea, number of patients” value ([3]; N = 3195) was 24 and the “Nausea, patients (%)” value ([3]; N = 3195) was “(9.4) %”. For the same molecule, the “Procedural pain, number of patients” value ([3]; N = 3195) was 13, the “Procedural pain, patients (%)” value ([3]; N = 3195) was “(5.1) %” and the “Urinary tract infection, number of patients” value ([3]; N = 3195) was 23. For the same molecule, the “Urinary tract infection, patients (%)” value ([3]; N = 3195) was “(9.0) %”, the “number of adverse events” value ([4]; after a high-fat breakfast) was 6 and the “number of adverse events” value ([4]; fasted state) was 18. The “food effect on overall exposure” value ([4]; fed vs fasted) was “no food effect on overall exposure”, the “reduction of Cmax in the fed compared to fasted state” value ([4]; high-fat breakfast) was “approximately 10%” and the “time of maximum plasma concentrations, fed compared to fasted” value ([4]; high-fat breakfast) was “statistically significant delay”. It also gave a blood plasma ratio ([5]; blood and plasma, read-out: Blood to plasma concentration ratio) of 1.3, a clearance ([5]; plasma) of 326 mL/min and a Vd ([5]; plasma, read-out: Apparent volume of distribution) of 307 L. For the same molecule, the Papp [6] was 3.54 ×10⁻⁶ cm/s, the t1/2 (Day 6, oral gavage 24 mg/kg/day for 6 days, not fasted, composite profiles, 24 mg/kg/day) was 4.02 h and the “Css = AUC24 hr ÷ dosing interval (24 h)” value (calculated for the infusion rate of the chronic study) was 213 ng/mL. The Cl [7] was 49.3 ± 4.83 mL/min/kg, the “Css from 42 to 90 hours” value [7] was 340 ng/mL and the “Css, 0 to 21 h” value [8] was 155 ng/mL. For the same molecule, the AUC(0-inf) (in vivo [9]) was 5210 ng·h/mL, the AUC(0-t) (in vivo [9]) was 5210 ng·h/mL and the Cmax (in vivo [9]) was 700 ng/mL. It also gave a Tmax (in vivo [9]) of 0.5 h, a half-life (in vivo [9]; t1/2, Day 6, oral gavage 24 mg/kg/day for 6 days, not fasted, composite profiles) of 4 h and an AUC(0-t) (in vivo [10]; po, 24 mg/kg/day) of 4170 ng·h/mL. The Cmax (in vivo [10]; po, 24 mg/kg/day) was 553 ng/mL, the AUC(0-t) (in vivo [10]; sc, 0.63 mg/kg/h) was 3630 ng·h/mL and the Cmax (in vivo [10]; sc, 0.63 mg/kg/h) was 213 ng/mL. The Kp (clinical) was < 1, the logP (physchem) was 2.56 and the pKa (physchem) was 9.53. For the same molecule, the “excess body weight lost” value ([11]; first phase 3 trial, based on a normal BMI of 25) was “about one-third”, the average weight loss [11, 12] was 12.7 pounds and the “average weight loss, of body weight” value [11, 12] was 5.8%. For the same molecule, the “average weight lost, of their weight” value ([11]; pivotal phase 3 clinical trial program) was “about 8%”, the “patients achieved at least 10% weight loss” value ([11]; pivotal phase 3 clinical trial program, treated for up to two years) was “over one-third” and the “average weight loss, top quartile of patients” value ([11]; second phase 3 trial) was 35 pounds. The “average weight loss, top quartile of patients, of body weight” value ([11]; second phase 3 trial) was 16% and the “development of FDA-defined valvulopathy (echocardiograms)” value ([11]; two-year treatment period) was “no apparent drug-related effect”.
